Test results: ChEMBL document CHEMBL1201862, “PubChem BioAssay data set” (2004)
Active and inactive are the calls of the source.

Key:
[1] = C. albicans growth with fluconazole, confirmation, fluorescence, retest (AID 2467); assay type: functional, cell-based
[2] = off-target signal loss in HeLa-CEM21 co-culture – HeLa F-luc CTL cells, cherry-picked, counter-screen for HIV-1 Env fusion inhibitor project, dose response (AID 652040); assay type: functional, cell-based;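 further: potency for signal decrease marking cytotoxic or nonspecific inhibition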
[3] = inhibitors of clade B AD8 Env fusion, dose response, cell-based, cherry-pick (AID 652062); assay type: functional;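 further: luciferase signal from cell-cell fusion driven by HIV-1 clade B AD8 Env; potency is for inhibitors of fusion seen as a drop in luminescence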
INS1 = assay: beta cell apoptosis inhibitors, cytokine rescue, dose response, luminescence, retest (AID 449756); assay type: functional, cell-based; conditions: Rattus norvegicus;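 further: cell death triggered by IL-1 beta plus TNF-alpha plus IFN-gamma mixture; protective hits raise ATP signal compared with cytokine alone wells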
[4] = NIH-3T3 fibroblast cytotoxicity, dose response, cytotoxicity control, cell-based, fluorescence, Alamar Blue, secondary assay (AID 2327); assay type: functional;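 further: NIH-3T3 mouse fibroblasts cultured with fluconazole at 8 µg/mL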
[5] = target: COUP transcription factor 2 (Homo sapiens, UniProt P24468); assay: Luminescence-based cell-based high throughput dose response assay to identify inhibitors of COUP-TFII (NR2F2).; assay type: functional;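 further: HEK293 cells transiently cotransfected with COUP-TFII expression vector and reporter; luciferase reporter luminescence driven by COUP-TFII from the pX2-168 reporter plasmid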
Caspase-7 = Caspase-7 (Homo sapiens, UniProt P55210); assay: human caspase-7 inhibitors, dose response, selectivity assay for caspase-6 inhibitor project, biochemical, DEVD-R110 fluorescence, cherry-pick (AID 743295)
Caspase-6 = Caspase-6 (Homo sapiens, UniProt P55212); assay: human caspase-6 inhibitors, dose response, biochemical, VEID-R110 fluorescence, cherry-pick (AID 720632)
[6] = target: Tyrosyl-DNA phosphodiesterase 2 (Homo sapiens, UniProt O95551); assay: human TDP2 enzyme inhibitors, dose response, biochemical, epi absorbance, IC50 (AID 743297)
Paired box protein Pax-8 = Paired box protein Pax-8 (Homo sapiens, UniProt Q06710); assay: inhibitors of PAX8-driven TPO luciferase reporter, dose response, RMG-I cells, cherry-pick (AID 687027); assay type: functional, cell-based;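 further: luciferase reporter driven by Pax8 target thyroperoxidase promoter measured by SteadyGlo luminescence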
[7] = cytotoxicity in OVCAR8 ovarian cancer cells, dose response, PAX8 project, cell-based, plate reader, dry powder samples (AID 743197); assay type: functional; conditions: OVCAR-8
[8] = NIH:OVCAR-3 ovarian cancer cell cytotoxicity, dose response, PAX8 inhibitor project, plate reader, dry powder samples (AID 743044); assay type: functional, cell-based
[9] = IGROV1 ovarian cancer cell cytotoxicity, dose response, PAX8 inhibitor project, plate reader, dry powder samples (AID 743043); assay type: functional, cell-based; conditions: IGROV-1
[10] = HepG2 cell cytotoxicity, dose response, cytotoxicity control, cherry-picks, set 5 (AID 1053118); assay type: functional, cell-based
[11] = HEK293 cell cytotoxicity, dose response, cytotoxicity control, cherry-picks, set 5 (AID 1053117); assay type: functional, cell-based
Major prion protein = Major prion protein (Homo sapiens, UniProt P04156); assay type: functional, cell-based
Vasopressin V1b receptor = Vasopressin V1b receptor (Homo sapiens, UniProt P47901); assay: Late-stage results from the probe development effort to identify antagonists of arginine vasopressin receptor 1a (AVPR1a): fluorescence-based cell-based dose response AVPR1b inhibition counterscreen assay.; assay type: functional
[12] = Late-stage results from the probe development effort to identify antagonists of arginine vasopressin receptor 1a (AVPR1a): fluorescence-based cell-based dose response AVPR1a inhibition assay.; assay type: functional
[13] = Late-stage results from the probe development effort to identify antagonists of arginine vasopressin receptor 1a (AVPR1a): fluorescence-based cell-based dose response OXTR inhibition counterscreen assay.; assay type: functional
Vasopressin V2 receptor = Vasopressin V2 receptor (Homo sapiens, UniProt P30518); assay: Late-stage results from the probe development effort to identify antagonists of arginine vasopressin receptor 1a (AVPR1a): fluorescence-based cell-based dose response AVPR2 inhibition counterscreen assay.; assay type: functional

Which results are given for `Clc1ccc(OCCN2CCN(c3ncnc4sccc34)CC2)cc1`?
EC50 [1]: 0.044 µM (active); AC50 [2]: > 70 µM (inactive); AC50 [3]: < 0.26 µM (active); AC50 (INS1): 0.503 µM (active); EC50 [4]: > 150 µM (inactive); IC50 [5]: 1.13 µM (active)

Which AC50 (Caspase-7) does the source give for `Cc1n[nH]c([S+]([O-])CC(=O)O)c1[N+](=O)[O-]` (stereo unspecified) here?
Its AC50 is 56.5 µM (active).

And the AC50 (Caspase-6)?
Its AC50 is 4.04 µM (active).

With `CC1=NN(c2ccccc2)C(=O)/C1=C\c1ccc(Br)s1` as the compound, how does the IC50 [6] read?
The IC50 was > 128 µM (inactive).

For `Cc1ccc(-c2ccc([C@H]3[C@H](CO)N4CCCCN(S(=O)(=O)c5cccc(C)c5)C[C@@H]34)cc2)cc1`, which AC50 (Paired box protein Pax-8) is on record?
Its AC50 is 8.11 µM (active).

And the AC50 [7]?
Its AC50 is 46 µM (active).

What about the AC50 [8] of the same compound?
Its AC50 is 31.7 µM (active).

And the AC50 [9]?
The AC50 was 55.4 µM (active).

Which AC50 [10] does the source give for `N#Cc1ccc(-c2ccc3c(c2)[C@H]2[C@H](CCN2S(=O)(=O)c2cccc(F)c2)[C@@H](CO)N3)cc1` here?
The AC50 was 38.1 µM (active).

What about the AC50 [11] of the same compound?
The AC50 was 32.8 µM (active).

Which IC50 (cells) does the source give for `CCOC(=O)CNC(=O)CSc1nc2c(C)cccc2cc1CC` here?
The IC50 was > 138 µM (inactive).

What about the IC50 (Major prion protein) of the same compound?
Its IC50 is 2.76 µM (active).

What does the source list for `Cc1cccnc1N1CCN(C(=O)N(CC2CC2)c2ccc(Cl)cc2)CC1`?
IC50 (Vasopressin V1b receptor): > 50 µM (inactive); IC50 [12]: 0.0084 µM (active); IC50 [13]: > 50 µM (inactive); IC50 (Vasopressin V2 receptor): > 50 µM (inactive)
